Here are results for two compounds from PMC5589878, “Development of Fluorescent Probes that Target Serotonin 5-HT2B Receptors” (Scientific Reports, 2017).

pEC50, pKi: −log10 of the molar value.

Data set [1] deals with T1, human 5-HT2C receptors (Homo sapiens, UniProt P28335).
T1 construct: expressed in transfected cells; host or cells: HeLa-5-HT2C cells (membranes)
T1 sequence (P28335 33-458): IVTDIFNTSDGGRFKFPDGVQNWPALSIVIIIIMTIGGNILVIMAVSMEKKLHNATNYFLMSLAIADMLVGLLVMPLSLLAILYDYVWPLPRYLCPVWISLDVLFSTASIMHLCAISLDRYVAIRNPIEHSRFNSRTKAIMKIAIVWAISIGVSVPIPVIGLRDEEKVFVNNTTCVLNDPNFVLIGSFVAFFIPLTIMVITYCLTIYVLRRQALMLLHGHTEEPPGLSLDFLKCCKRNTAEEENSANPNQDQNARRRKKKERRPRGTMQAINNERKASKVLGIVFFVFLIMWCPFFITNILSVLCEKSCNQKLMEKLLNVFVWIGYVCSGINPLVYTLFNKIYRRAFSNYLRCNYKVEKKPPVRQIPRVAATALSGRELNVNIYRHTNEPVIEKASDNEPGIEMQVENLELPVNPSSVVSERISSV
The data set can be described thus: Radioligand competition binding assay at human 5-HT2C receptors. (In general: In a radioligand displacement assay an active substance lowers the binding of a labelled ligand.)

Data set [2] has as its target T2, 5-HT2B receptors (Homo sapiens, UniProt P41595). Kind of data set: Functional assay of IPs accumulation at human 5-HT2B receptors. In kind it is cell-based. On the procedure: After 24 h, growth medium was replaced by serum-free medium containing 10 μCi/mL [^3H]myo-inositol (20.3 Ci/mmol, Perkin-Elmer) for 24 h. […] After the incubation time, assay buffer was discarded and 200 μL of 100 mM formic acid was added to the cells for 30 min at 4 °C and 20 μL of the lysate were transferred to a flexiplate plate (Perkin-Elmer, Waltham, MA, USA) together with 80 μL of a solution of RNA Binding YSi SPA Beads (Perkin-Elmer, Waltham, MA, USA) to measure accumulation of [^3H]IPs (IP1,IP2, and IP3, collectively referred to as IPs).

Data set [3] in a line: Absorption and emission spectra (photophysical properties). In kind it is physicochemical. The conditions noted are these: 10 μM solutions. On the procedure: The absorption and emission spectra of the fluorescent 5-HT2 ligands (10 and 12) were determined on 10 μM solutions. The most relevant fluorescent properties are collected in Fig. 5. All of the synthesized derivatives emitted fluorescence in the visible region of the spectrum, with selected fluorescent tags (Fig. 4) providing distinctive properties and excitation wavelengths. The excitation wavelengths varied from 305 to 555 nm, whereas those for emission varied from 398 to 580 nm.

Data set [4] concerns the target T2, 5-HT2B receptors. It is filed as cell-based. The following applies: 3 μM, 10 min at 37 °C; image analysis and plate reader; p < 0.001. The procedure: Having finished the preliminary photophysical and pharmacological characterization of the fluorescent derivatives 12a–i, their potential to specifically label 5-HT2B receptors in live cells was evaluated. Chinese hamster ovary K1 (CHO-K1) cells and CHO-K1 cells stably expressing the human serotonin 5-HT2B receptor (CHO-K1-5-HT2B), growing in 96-well plates, were incubated with at least three different concentrations of each compound for varying times and, after compound removal and washing of the cells, plates were subjected to fluorescence microscopy using a high content imaging instrument and the appropriate excitation and emission filter set for each compound.
For cell labelling studies, cells were plated onto 96-well plates (Cell Carrier; Perkin-Elmer, Waltham, MA, USA) pre-treated with poly-D-lysine hydrobromide 0.1 mg/mL (Sigma Aldrich, Spain) at a density of 10000 cells/well and cultured for 24 h. […] Fluorescence images were acquired using an Operetta high content imaging instrument (Perkin-Elmer, Waltham, MA, USA) at 20x and 40x magnification, at excitation wavelengths of 520–550 nm and emission wavelengths of 560–630 nm (standard 5-TAMRA filter set) for compound 12i, and excitation wavelengths of 360–400 nm and emission wavelengths of 410–480 nm for Hoechst 33342 (standard Hoechst 33342 filter set). […]

Data set [5] addresses T2, 5-HT2B receptors. The data set can be described thus: Radioligand competition binding assay at human 5-HT2B receptors.
Data set [6] deals with T3, 5-HT2A receptors (Homo sapiens, UniProt P28223). The data set can be described thus: Labelling of 5-HT2A receptors in live CHO-FA4-5-HT2A cells (fluorescence microscopy, plate reader). It is filed as cell-based. The arrangement: expressed in transfected cells; host or cells: CHO-FA4-5-HT2A cells (live). On the procedure:
The specificity and sensitivity of the 12i probe towards 5-HT2B receptors over other 5-HT2 receptor subtypes was evaluated by performing similar labelling experiments in CHO cells stably expressing 5-HT2A receptors (CHO-FA4-5-HT2A). […] However, even in these conditions (20 μM concentration of 12i) the signal window over background achieved for 5-HT2A labelling was considerably smaller than that detected in the case of 5-HT2B labelling at a concentration of 12i more than 6 times lower (3 μM) (Fig. 9 and Supplementary Figure S3).
For cell labelling studies, cells were plated onto 96-well plates (Cell Carrier; Perkin-Elmer, Waltham, MA, USA) pre-treated with poly-D-lysine hydrobromide 0.1 mg/mL (Sigma Aldrich, Spain) at a density of 10000 cells/well and cultured for 24 h. […] Fluorescence images were acquired using an Operetta high content imaging instrument (Perkin-Elmer, Waltham, MA, USA) at 20x and 40x magnification, at excitation wavelengths of 520–550 nm and emission wavelengths of 560–630 nm (standard 5-TAMRA filter set) for compound 12i, and excitation wavelengths of 360–400 nm and emission wavelengths of 410–480 nm for Hoechst 33342 (standard Hoechst 33342 filter set).
The fluorescence intensity of the cells labelled with compound 12i was quantified by image analysis of the acquired images using Harmony v3.5 software (Perkin-Elmer). […]

Data set [7] deals with T3, 5-HT2A receptors. Kind of data set: Radioligand competition binding assay at human 5-HT2A receptors. The arrangement: expressed in transfected cells; host or cells: CHO-FA4-5-HT2A cells (membranes).
Data set [8] concerns tumor necrosis factor alpha (TNF-α). The following applies: primary aortic smooth muscle cells and animal models; cited from earlier work.

T3 sequence (P28223 whole entry): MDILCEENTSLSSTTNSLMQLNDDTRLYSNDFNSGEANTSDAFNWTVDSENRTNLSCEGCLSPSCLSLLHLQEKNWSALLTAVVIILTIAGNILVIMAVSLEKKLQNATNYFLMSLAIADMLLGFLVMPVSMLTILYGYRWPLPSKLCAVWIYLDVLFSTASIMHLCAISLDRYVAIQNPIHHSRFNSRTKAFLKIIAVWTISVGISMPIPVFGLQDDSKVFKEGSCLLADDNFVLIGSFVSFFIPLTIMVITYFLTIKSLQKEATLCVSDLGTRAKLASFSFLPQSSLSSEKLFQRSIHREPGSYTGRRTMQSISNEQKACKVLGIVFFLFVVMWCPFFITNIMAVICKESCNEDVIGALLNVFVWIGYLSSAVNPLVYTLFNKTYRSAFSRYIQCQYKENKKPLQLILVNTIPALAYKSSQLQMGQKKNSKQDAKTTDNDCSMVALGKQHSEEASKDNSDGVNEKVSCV
T2 sequence (P41595 whole entry): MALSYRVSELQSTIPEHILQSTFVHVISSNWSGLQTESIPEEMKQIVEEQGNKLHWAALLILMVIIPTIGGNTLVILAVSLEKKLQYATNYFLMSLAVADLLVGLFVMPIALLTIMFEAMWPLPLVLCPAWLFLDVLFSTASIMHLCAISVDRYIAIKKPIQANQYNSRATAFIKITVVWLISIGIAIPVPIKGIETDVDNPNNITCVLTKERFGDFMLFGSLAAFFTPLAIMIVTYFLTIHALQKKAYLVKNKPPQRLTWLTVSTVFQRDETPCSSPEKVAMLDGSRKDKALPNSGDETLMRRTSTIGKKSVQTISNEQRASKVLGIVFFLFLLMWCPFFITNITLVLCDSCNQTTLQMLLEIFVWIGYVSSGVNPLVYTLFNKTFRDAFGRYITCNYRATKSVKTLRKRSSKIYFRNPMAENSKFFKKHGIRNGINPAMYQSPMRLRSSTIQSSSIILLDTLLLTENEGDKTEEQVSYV

`CCN(CC)c1ccc2c(-c3ccccc3C(=O)NCCC(=O)NCCC(=O)NCCCOCCOCCOCCCNC(=O)CCCOc3cc(I)c(OC)cc3CC(C)N)c3ccc(=[N+](CC)CC)cc-3oc2c1` (stereo not shown) [12i, N-(9-(2-((26-(2-(2-aminopropyl)-5-iodo-4-methoxyphenoxy)-3,7,23-trioxo-12,15,18-trioxa-4,8,22-triazahexacosyl)carbamoyl)phenyl)-6-(diethylamino)-3H-xanthen-3-ylidene)-N-ethylethanaminium] came in with a melting point of 151 to 153 °C. Moreover, the pKi in [1] is 6.00. This compound gave a pEC50 in data set [2] of 6.65. In addition, in data set [3], the “Δλ (Stokes shift)” value is 25 nm, the εmax came to 78828 M⁻¹ cm⁻¹, the “λmax Abs” value worked out at 555 nm and the “λmax Em” value is 580 nm. Also, the “fluorescence intensity of CHO-K1-5-HT2B cell wells versus control CHO-K1 cell wells” value in [4] is recorded as “clearly superior”. In addition, the pKi in [5] was 6.58. Besides, the “specific labelling of 5-HT2A receptors in CHO-FA4-5-HT2A cells” value in [6] (3 μM) was “no statistically significant specific labelling”. For the same compound, the “specific labelling of 5-HT2A receptors in CHO-FA4-5-HT2A cells” value in data set [6] (20 μM) is on record as “certain specific labelling”. Also, the pKi in data set [7] is 5.91.
On to `COc1cc(CC(C)N)c(OC)cc1I` (stereo not shown) [DOI, 1-(2,5-Dimethoxy-4-iodophenyl)-propan-2-amine, reference compound], for which the pKi is 7.74 in [1] and 7.32 in data set [5]. This compound also gave a pEC50 in [2] of 7.93. The “potency of blockade of the pro-inflammatory effects of TNF-α” value in data set [8] is “≈ 15 pM”.

As a reminder, the pKi is the Ki on a negative log10 scale, so that one unit is a factor of ten. Low values mean a large Ki, high ones a small Ki. As a reminder, the pEC50 is −log10 of the EC50, conventionally taken in molar units. Lower therefore signals a high EC50. Broadly, the melting point is the temperature, or range, at which the solid turns liquid.
